Results published in the NIST ThermoML archive (doi:10.1016/j.jct.2012.03.003).
± gives the expanded uncertainty stated by the source.

Assay: xn = mol fraction of the nth substance listed
Conditions: Liquid, Vibrating tube method

COc1cc2c(cc1O)CC1c3c(cc(O)c(OC)c3-2)CCN1C (stereo not given) [boldine] + CCCO
Conditions | mass density [kg/m3]
343.02 K, 16000 kPa, x1 = 0.0112 | 795.93 ± 0.75
343.02 K, 17000 kPa, x1 = 0.0112 | 796.79 ± 0.76
343.02 K, 18000 kPa, x1 = 0.0112 | 797.62 ± 0.76
343.02 K, 19000 kPa, x1 = 0.0112 | 798.46 ± 0.76
343.02 K, 20000 kPa, x1 = 0.0112 | 799.28 ± 0.76
343.04 K, 1000 kPa, x1 = 0.0046 | 771.67 ± 0.7
343.04 K, 2000 kPa, x1 = 0.0046 | 772.63 ± 0.7
343.04 K, 3000 kPa, x1 = 0.0046 | 773.6 ± 0.71
343.04 K, 4000 kPa, x1 = 0.0046 | 774.56 ± 0.71
343.04 K, 5000 kPa, x1 = 0.0046 | 775.44 ± 0.71
343.04 K, 6000 kPa, x1 = 0.0046 | 776.45 ± 0.71
343.04 K, 7000 kPa, x1 = 0.0046 | 777.41 ± 0.72
343.04 K, 8000 kPa, x1 = 0.0046 | 778.35 ± 0.72
343.04 K, 9000 kPa, x1 = 0.0046 | 779.29 ± 0.72
343.04 K, 10000 kPa, x1 = 0.0046 | 780.23 ± 0.72
343.04 K, 11000 kPa, x1 = 0.0046 | 781.16 ± 0.73
343.04 K, 12000 kPa, x1 = 0.0046 | 782.09 ± 0.73
343.04 K, 13000 kPa, x1 = 0.0046 | 782.98 ± 0.73
343.04 K, 14000 kPa, x1 = 0.0046 | 783.89 ± 0.74
343.04 K, 15000 kPa, x1 = 0.0046 | 784.78 ± 0.74
343.04 K, 16000 kPa, x1 = 0.0046 | 785.65 ± 0.74
343.04 K, 17000 kPa, x1 = 0.0046 | 786.52 ± 0.75
343.04 K, 18000 kPa, x1 = 0.0046 | 787.37 ± 0.75
343.04 K, 19000 kPa, x1 = 0.0046 | 788.26 ± 0.75
343.04 K, 20000 kPa, x1 = 0.0046 | 789.03 ± 0.76
352.94 K, 1000 kPa, x1 = 0.0018 | 756.19 ± 0.93
352.94 K, 1000 kPa, x1 = 0.0112 | 772.97 ± 0.72
352.94 K, 1000 kPa, x1 = 0.0142 | 777.66 ± 0.63
352.94 K, 2000 kPa, x1 = 0.0018 | 757.24 ± 0.92
352.94 K, 2000 kPa, x1 = 0.0112 | 774.02 ± 0.72
352.94 K, 2000 kPa, x1 = 0.0142 | 778.69 ± 0.64
352.94 K, 3000 kPa, x1 = 0.0018 | 758.3 ± 0.93
352.94 K, 3000 kPa, x1 = 0.0112 | 775.24 ± 0.72
352.94 K, 3000 kPa, x1 = 0.0142 | 779.72 ± 0.62
352.94 K, 4000 kPa, x1 = 0.0018 | 759.35 ± 0.93
352.94 K, 4000 kPa, x1 = 0.0112 | 776.07 ± 0.72
352.94 K, 4000 kPa, x1 = 0.0142 | 780.73 ± 0.64
352.94 K, 5000 kPa, x1 = 0.0018 | 760.39 ± 0.93
352.94 K, 5000 kPa, x1 = 0.0112 | 777.15 ± 0.72
352.94 K, 5000 kPa, x1 = 0.0142 | 781.74 ± 0.64
352.94 K, 6000 kPa, x1 = 0.0018 | 761.42 ± 0.93
352.94 K, 6000 kPa, x1 = 0.0112 | 778.1 ± 0.73
352.94 K, 6000 kPa, x1 = 0.0142 | 782.74 ± 0.65
352.94 K, 7000 kPa, x1 = 0.0018 | 762.46 ± 0.93
352.94 K, 7000 kPa, x1 = 0.0112 | 779.1 ± 0.73
352.94 K, 7000 kPa, x1 = 0.0142 | 783.74 ± 0.65
352.94 K, 8000 kPa, x1 = 0.0018 | 763.48 ± 0.93
352.94 K, 8000 kPa, x1 = 0.0112 | 780.11 ± 0.73
352.94 K, 8000 kPa, x1 = 0.0142 | 784.73 ± 0.65
352.94 K, 9000 kPa, x1 = 0.0018 | 764.5 ± 0.93
352.94 K, 9000 kPa, x1 = 0.0112 | 781.09 ± 0.73
352.94 K, 9000 kPa, x1 = 0.0142 | 785.73 ± 0.66
352.94 K, 10000 kPa, x1 = 0.0018 | 765.51 ± 0.93
352.94 K, 10000 kPa, x1 = 0.0112 | 782.07 ± 0.74
352.94 K, 10000 kPa, x1 = 0.0142 | 786.7 ± 0.66
352.94 K, 11000 kPa, x1 = 0.0018 | 766.51 ± 0.93
352.94 K, 11000 kPa, x1 = 0.0112 | 783.04 ± 0.74
352.94 K, 11000 kPa, x1 = 0.0142 | 787.66 ± 0.66
352.94 K, 12000 kPa, x1 = 0.0018 | 767.49 ± 0.94
352.94 K, 12000 kPa, x1 = 0.0112 | 784.02 ± 0.74
352.94 K, 12000 kPa, x1 = 0.0142 | 788.61 ± 0.67
352.94 K, 13000 kPa, x1 = 0.0018 | 768.45 ± 0.94
352.94 K, 13000 kPa, x1 = 0.0112 | 784.98 ± 0.74
352.94 K, 13000 kPa, x1 = 0.0142 | 789.57 ± 0.67
352.94 K, 14000 kPa, x1 = 0.0018 | 769.42 ± 0.94
352.94 K, 14000 kPa, x1 = 0.0112 | 785.8 ± 0.75
352.94 K, 14000 kPa, x1 = 0.0142 | 790.48 ± 0.68
352.94 K, 15000 kPa, x1 = 0.0018 | 770.37 ± 0.95
352.94 K, 15000 kPa, x1 = 0.0112 | 786.85 ± 0.75
352.94 K, 15000 kPa, x1 = 0.0142 | 791.41 ± 0.67
352.94 K, 16000 kPa, x1 = 0.0018 | 771.31 ± 0.95
352.94 K, 16000 kPa, x1 = 0.0112 | 787.79 ± 0.75
352.94 K, 16000 kPa, x1 = 0.0142 | 792.32 ± 0.67
352.94 K, 17000 kPa, x1 = 0.0018 | 772.22 ± 0.95
352.94 K, 17000 kPa, x1 = 0.0112 | 788.61 ± 0.76
